Laboratory results from patent US8691865B2 (AbbVie Inc., priority 2008, dated 2014).
Like-named read-outs stand apart in the source and are kept apart here.

Molecular target: human Cav2.2 (Homo sapiens, UniProt Q00975)
Assay: Assessment of calcium channel activity using FLIPR (Ca2+ influx in IMR32 cells)
Format: cell-based
In short: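 Human neuroblastoma IMR32 cells were seeded at 1−1.2×10^5 cells/well and cultured 48 h at 37 °C before FLIPR calcium influx measurement. Percent inhibition at each concentration was calculated against the no-inhibitor signal, and IC50 came from sigmoidal dose-response fits.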

[1] = read-out: IC50 (μM) or percent inhibition (* indicates 3 minute incubation, otherwise 60 minute), IC50, 60 minute pre-incubation with compound, IMR32 cells, 80 mM KCl depolarization

Chain of human Cav2.2 (Q00975 whole entry): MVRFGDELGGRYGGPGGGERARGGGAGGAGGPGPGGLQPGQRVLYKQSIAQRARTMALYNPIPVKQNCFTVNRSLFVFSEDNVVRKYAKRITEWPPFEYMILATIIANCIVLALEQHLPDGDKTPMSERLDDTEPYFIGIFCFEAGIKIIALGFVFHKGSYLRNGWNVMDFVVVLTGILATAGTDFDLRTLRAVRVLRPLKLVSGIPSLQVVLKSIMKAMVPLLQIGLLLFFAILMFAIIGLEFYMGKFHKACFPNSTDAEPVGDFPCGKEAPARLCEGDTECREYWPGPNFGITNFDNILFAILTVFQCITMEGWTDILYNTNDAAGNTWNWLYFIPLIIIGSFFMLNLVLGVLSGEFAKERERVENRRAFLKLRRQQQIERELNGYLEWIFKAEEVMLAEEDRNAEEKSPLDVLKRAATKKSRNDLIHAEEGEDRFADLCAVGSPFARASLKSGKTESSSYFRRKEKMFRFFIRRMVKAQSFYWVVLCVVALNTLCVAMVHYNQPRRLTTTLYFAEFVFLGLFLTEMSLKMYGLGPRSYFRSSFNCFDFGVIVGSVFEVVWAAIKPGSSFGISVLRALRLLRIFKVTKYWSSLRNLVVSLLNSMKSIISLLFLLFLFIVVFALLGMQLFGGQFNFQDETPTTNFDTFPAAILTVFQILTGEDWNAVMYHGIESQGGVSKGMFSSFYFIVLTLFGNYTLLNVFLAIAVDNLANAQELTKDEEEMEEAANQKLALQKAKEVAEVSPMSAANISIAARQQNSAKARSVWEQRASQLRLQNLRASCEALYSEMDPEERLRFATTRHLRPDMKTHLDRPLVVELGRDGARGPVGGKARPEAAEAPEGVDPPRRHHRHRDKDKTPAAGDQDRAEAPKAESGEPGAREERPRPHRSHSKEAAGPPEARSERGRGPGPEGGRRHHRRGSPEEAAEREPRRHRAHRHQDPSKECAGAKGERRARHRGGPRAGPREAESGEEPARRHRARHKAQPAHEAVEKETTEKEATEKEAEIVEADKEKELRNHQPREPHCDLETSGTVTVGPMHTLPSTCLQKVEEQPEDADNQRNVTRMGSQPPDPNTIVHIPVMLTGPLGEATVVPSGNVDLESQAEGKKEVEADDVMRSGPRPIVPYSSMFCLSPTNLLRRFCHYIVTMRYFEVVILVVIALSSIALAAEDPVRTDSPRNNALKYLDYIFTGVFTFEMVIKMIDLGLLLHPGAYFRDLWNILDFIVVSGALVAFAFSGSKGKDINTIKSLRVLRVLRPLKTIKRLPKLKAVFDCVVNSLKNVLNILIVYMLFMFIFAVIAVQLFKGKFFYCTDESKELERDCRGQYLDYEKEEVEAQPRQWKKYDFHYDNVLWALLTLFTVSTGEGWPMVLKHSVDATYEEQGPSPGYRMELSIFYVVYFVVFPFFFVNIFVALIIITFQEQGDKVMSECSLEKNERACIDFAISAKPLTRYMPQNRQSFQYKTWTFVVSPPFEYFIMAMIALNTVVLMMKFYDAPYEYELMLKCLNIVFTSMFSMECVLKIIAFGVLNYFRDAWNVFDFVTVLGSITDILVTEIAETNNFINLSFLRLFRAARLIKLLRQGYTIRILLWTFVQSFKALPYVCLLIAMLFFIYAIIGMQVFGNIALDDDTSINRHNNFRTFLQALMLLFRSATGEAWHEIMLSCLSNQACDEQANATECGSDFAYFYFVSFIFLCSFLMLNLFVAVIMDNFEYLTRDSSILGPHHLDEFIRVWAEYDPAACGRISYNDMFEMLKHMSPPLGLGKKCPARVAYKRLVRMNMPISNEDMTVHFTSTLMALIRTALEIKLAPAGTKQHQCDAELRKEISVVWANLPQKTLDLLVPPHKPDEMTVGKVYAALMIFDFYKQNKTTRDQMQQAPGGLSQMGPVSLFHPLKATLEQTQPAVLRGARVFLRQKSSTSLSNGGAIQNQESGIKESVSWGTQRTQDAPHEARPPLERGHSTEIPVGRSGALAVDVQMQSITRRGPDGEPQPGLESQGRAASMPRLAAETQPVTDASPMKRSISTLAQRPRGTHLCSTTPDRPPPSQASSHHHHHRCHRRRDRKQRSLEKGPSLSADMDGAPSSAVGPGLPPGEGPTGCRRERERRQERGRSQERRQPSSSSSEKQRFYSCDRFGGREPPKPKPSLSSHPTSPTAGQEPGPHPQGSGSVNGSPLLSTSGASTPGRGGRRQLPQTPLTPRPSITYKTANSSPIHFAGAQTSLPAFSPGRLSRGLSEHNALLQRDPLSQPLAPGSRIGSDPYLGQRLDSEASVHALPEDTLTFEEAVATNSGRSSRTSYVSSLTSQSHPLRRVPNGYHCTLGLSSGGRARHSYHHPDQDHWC
Chain of human Cav2.2 (P54289 25-956 partner limits assumed): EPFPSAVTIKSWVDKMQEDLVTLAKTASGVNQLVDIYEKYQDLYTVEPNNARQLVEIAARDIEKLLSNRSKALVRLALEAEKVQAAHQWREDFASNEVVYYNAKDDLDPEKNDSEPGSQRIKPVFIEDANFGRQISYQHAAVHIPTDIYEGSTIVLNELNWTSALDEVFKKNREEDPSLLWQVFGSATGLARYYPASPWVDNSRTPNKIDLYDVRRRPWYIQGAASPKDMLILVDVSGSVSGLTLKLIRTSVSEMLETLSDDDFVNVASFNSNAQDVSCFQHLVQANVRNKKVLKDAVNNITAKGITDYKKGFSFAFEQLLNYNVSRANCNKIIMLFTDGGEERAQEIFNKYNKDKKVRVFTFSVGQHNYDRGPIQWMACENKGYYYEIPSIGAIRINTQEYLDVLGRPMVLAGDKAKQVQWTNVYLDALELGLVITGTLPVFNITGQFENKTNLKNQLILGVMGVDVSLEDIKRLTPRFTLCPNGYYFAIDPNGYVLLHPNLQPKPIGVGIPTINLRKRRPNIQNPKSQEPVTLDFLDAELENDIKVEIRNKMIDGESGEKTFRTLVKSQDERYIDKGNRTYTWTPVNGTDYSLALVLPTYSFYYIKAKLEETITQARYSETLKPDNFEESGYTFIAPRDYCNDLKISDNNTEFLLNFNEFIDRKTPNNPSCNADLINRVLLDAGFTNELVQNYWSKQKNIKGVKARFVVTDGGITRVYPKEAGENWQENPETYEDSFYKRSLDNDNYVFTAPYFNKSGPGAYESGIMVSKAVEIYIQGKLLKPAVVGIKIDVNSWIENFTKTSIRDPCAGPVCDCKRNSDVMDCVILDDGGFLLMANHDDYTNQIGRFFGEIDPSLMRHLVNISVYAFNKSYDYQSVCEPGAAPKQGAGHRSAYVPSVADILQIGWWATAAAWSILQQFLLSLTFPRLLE
Chain of human Cav2.2 (P54289 957-1103 partner limits assumed): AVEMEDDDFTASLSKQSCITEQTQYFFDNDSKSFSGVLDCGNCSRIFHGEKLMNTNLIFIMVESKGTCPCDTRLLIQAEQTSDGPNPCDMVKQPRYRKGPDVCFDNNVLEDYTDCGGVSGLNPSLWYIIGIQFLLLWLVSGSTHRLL
Chain of human Cav2.2 (P54284 whole entry partner): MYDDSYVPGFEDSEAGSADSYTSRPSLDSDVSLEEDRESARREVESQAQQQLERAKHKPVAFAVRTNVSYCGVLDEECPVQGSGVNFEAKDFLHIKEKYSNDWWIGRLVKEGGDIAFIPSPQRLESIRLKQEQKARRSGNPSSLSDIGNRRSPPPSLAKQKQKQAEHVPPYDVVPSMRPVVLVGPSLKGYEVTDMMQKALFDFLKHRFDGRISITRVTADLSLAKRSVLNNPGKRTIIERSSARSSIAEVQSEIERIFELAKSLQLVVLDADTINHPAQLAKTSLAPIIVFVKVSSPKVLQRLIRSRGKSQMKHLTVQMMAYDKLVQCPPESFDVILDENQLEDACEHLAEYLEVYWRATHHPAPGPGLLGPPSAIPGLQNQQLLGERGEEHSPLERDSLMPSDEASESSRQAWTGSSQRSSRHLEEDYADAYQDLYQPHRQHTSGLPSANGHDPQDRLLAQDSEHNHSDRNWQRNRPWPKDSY

Compound	IC50	IC50 [1]
O=C(N[C@H]1CC[C@@H]2CN(c3ccc(F)c(C(F)(F)F)c3)C[C@@H]21)[C@@H]1C[C@@H](F)CN1 [Example 626, (4R)-4-fluoro-N-{(3aR,4S,6aS)-2-[4-fluoro-3-(trifluoromethyl)phenyl]octahydrocyclopenta[c]pyrrol-4-yl}-L-prolinamide]	4.52 µM	
O=C(N[C@H]1CC[C@@H]2CN(c3cccc(C(F)(F)F)n3)C[C@@H]21)[C@@H]1C[C@H](F)CN1 [Example 596, (4S)-4-fluoro-N-{(3aR,4S,6aS)-2-[6-(trifluoromethyl)pyridin-2-yl]octahydrocyclopenta[c]pyrrol-4-yl}-L-prolinamide]	4.47 µM	
FC(F)(F)c1cccc(N2C[C@H]3CC[C@H](NCc4c[nH]c5ccccc45)[C@H]3C2)n1 [Example 684, (3aR,4S,6aS)-N-(1H-indol-3-ylmethyl)-2-[6-(trifluoromethyl)pyridin-2-yl]octahydrocyclopenta[c]pyrrol-4-amine]	1.05 µM	
CCC[C@H](NC(=O)OC(C)C)C(=O)N[C@H]1CC[C@@H]2CN(c3ccc(C(F)(F)F)cn3)C[C@@H]21 [Example 263, isopropyl(S)-1-oxo-1-((3aR,4S,6aS)-2-(5-(trifluoromethyl)pyridin-2-yl)octahydrocyclopenta[c]pyrrol-4-ylamino)pentan-2-ylcarbamate]	> 30 µM	
CNCC(=O)N[C@H]1CC[C@@H]2CN(c3ccc(C(F)(F)F)cc3)C[C@@H]21 [Example 752, N^2-methyl-N-{(3aR,4S,6aS)-2-[4-(trifluoromethyl)phenyl]octahydrocyclopenta[c]pyrrol-4-yl}glycinamide]	> 9.5 µM	

Second part, the molecule after the results:

IC50	IC50 [1]	Compound
2.11 µM		CCCC[C@H](NC)C(=O)N[C@H]1CC[C@@H]2CN(c3ccc(C(F)(F)F)cn3)C[C@@H]21 [Example 601, N^2-methyl-N-{(3aR,4S,6aS)-2-[5-(trifluoromethyl)pyridin-2-yl]octahydrocyclopenta[c]pyrrol-4-yl}-L-norleucinamide]
2.9 µM		CN[C@@H](CC(C)C)C(=O)N[C@H]1CC[C@@H]2CN(c3ccccc3C(F)F)C[C@@H]21 [Example 771, N-{(3aR,4S,6aS)-2-[2-(difluoromethyl)phenyl]octahydrocyclopenta[c]pyrrol-4-yl}-N^2-methyl-L-leucinamide]
1.32 µM		O=C(N[C@H]1CC[C@@H]2CN(c3cccc(C(F)(F)F)n3)C[C@@H]21)c1ccccc1F [Example 563, 2-fluoro-N-{(3aR,4S,6aS)-2-[6-(trifluoromethyl)pyridin-2-yl]octahydrocyclopenta[c]pyrrol-4-yl}benzamide]
> 30 µM		CN[C@H](C(=O)N[C@@H]1CC[C@H]2CN(Cc3ccccc3)C[C@H]21)C(C)C [Example 351, N^1-[(3aS,4R,6aR)-2-benzyloctahydrocyclopenta[c]pyrrol-4-yl]-N^2-methyl-L-valinamide]
	1.01 µM	CC(C)C[C@H](C(=O)N[C@H]1CC[C@H]2CN(Cc3cccc(C(F)(F)F)c3)C[C@H]21)N(C)C(=O)OC(C)(C)C (relative stereo) [Example 139, N^2-(tert-butyloxycarbonyl)-N^2-methyl-N^1-{(3aS*,4S*,6aR*)-2-[3-(trifluoromethyl)benzyl]octahydrocyclopenta[c]pyrrol-4-yl}-D-leucinamide]
1.11 µM		O=C(N[C@H]1CC[C@@H]2CN(c3cccc(C(F)(F)F)n3)C[C@@H]21)c1ccc(-c2cccs2)o1 [Example 571, 5-(2-thienyl)-N-{(3aR,4S,6aS)-2-[6-(trifluoromethyl)pyridin-2-yl]octahydrocyclopenta[c]pyrrol-4-yl}-2-furamide]
	1.69 µM	O=C(N[C@H]1CC[C@H]2CN(CCCc3ccccc3)C[C@H]21)C(C1CCCCC1)C1CCCCC1 [Example 69, 2,2-dicyclohexyl-N-[(3aS,4S,6aR)-2-(3-phenylpropyl)octahydrocyclopenta[c]pyrrol-4-yl]acetamide]
1.21 µM		CC(C)C(C(=O)N[C@H]1CC[C@@H]2CN(CCCc3ccccc3)C[C@@H]21)c1ccccc1 (stereo partly drawn) [Example 105, 3-methyl-2-phenyl-N-[(3aR,4S,6aS)-2-(3-phenylpropyl)octahydrocyclopenta[c]pyrrol-4-yl]butanamide]
